# Data reported in PubChem BioAssay (NCI).
#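 At the GI50, growth is halved. TGI: total growth inhibition.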
# Tests used:
# Test in all cases: NCI anticancer screen, dose series, 384-well format
# SW-620 colon = system: SW-620 colon
# SK-MEL-2 melanoma = system: SK-MEL-2 melanoma
# HOP-92 NSCLC = system: HOP-92 NSCLC
# PC-3 prostate = system: PC-3 prostate
# HOP-62 NSCLC = system: HOP-62 NSCLC
# LOX IMVI melanoma = system: LOX IMVI melanoma
# NCI/ADR-RES ovarian = system: NCI/ADR-RES ovarian
# UACC-62 melanoma = system: UACC-62 melanoma
# IGROV1 ovarian = system: IGROV1 ovarian
# MOLT-4 leukemia = system: MOLT-4 leukemia
# SF-268 CNS = system: SF-268 CNS
# HL-60(TB) leukemia = system: HL-60(TB) leukemia
# HT29 colon = system: HT29 colon
# SNB-19 CNS = system: SNB-19 CNS
# SK-MEL-28 melanoma = system: SK-MEL-28 melanoma
# OVCAR-5 ovarian = system: OVCAR-5 ovarian
# SR leukemia = system: SR leukemia
# CCRF-CEM leukemia = system: CCRF-CEM leukemia
# NCI-H460 NSCLC = system: NCI-H460 NSCLC
# K-562 leukemia = system: K-562 leukemia
# MDA-MB-468 breast = system: MDA-MB-468 breast
# ACHN renal = system: ACHN renal
# BT-549 breast = system: BT-549 breast
# M14 melanoma = system: M14 melanoma
# HCT-116 colon = system: HCT-116 colon
# SK-OV-3 ovarian = system: SK-OV-3 ovarian
# KM12 colon = system: KM12 colon
# SF-539 CNS = system: SF-539 CNS
# SN12C renal = system: SN12C renal
# HCC-2998 colon = system: HCC-2998 colon
# U251 glioblastoma = system: U251 glioblastoma
# A549 NSCLC = system: A549 NSCLC
# RXF 393 renal = system: RXF 393 renal
# NCI-H226 lung = system: NCI-H226 lung
# TK-10 renal = system: TK-10 renal
# UO-31 renal = system: UO-31 renal
# MALME-3M melanoma = system: MALME-3M melanoma
# SK-MEL-5 melanoma = system: SK-MEL-5 melanoma
# MCF7 breast = system: MCF7 breast
# OVCAR-8 ovarian = system: OVCAR-8 ovarian
# OVCAR-4 ovarian = system: OVCAR-4 ovarian
# HCT-15 colon = system: HCT-15 colon
# COLO 205 colon = system: COLO 205 colon
# 786-0 renal = system: 786-0 renal
# MDA-MB-231 breast = system: MDA-MB-231 breast
# DU-145 prostate = system: DU-145 prostate
# A498 renal = system: A498 renal
# MDA-MB-435 melanoma = system: MDA-MB-435 melanoma
# NCI-H322M lung = system: NCI-H322M lung
# NCI-H522 lung = system: NCI-H522 lung
# UACC-257 melanoma = system: UACC-257 melanoma
# CAKI-1 renal = system: CAKI-1 renal
# RPMI-8226 leukemia = system: RPMI-8226 leukemia
compound,measurement,setting,value
Cc1c(F)c(N)c2c(=O)cc(-c3ccc(NC(=O)[C@@H](N)CCCCN)c(F)c3)oc2c1F,GI50,SW-620 colon,2.56 µM
same,TGI,SW-620 colon,11.5 µM
same,GI50,SK-MEL-2 melanoma,2.98 µM
same,TGI,SK-MEL-2 melanoma,11.9 µM
same,GI50,HOP-92 NSCLC,4.95 µM
same,TGI,HOP-92 NSCLC,15.7 µM
same,GI50,PC-3 prostate,13.3 µM
same,TGI,PC-3 prostate,26.1 µM
same,GI50,HOP-62 NSCLC,9.12 µM
same,TGI,HOP-62 NSCLC,21.5 µM
same,GI50,LOX IMVI melanoma,10.2 µM
same,TGI,LOX IMVI melanoma,21.9 µM
same,GI50,NCI/ADR-RES ovarian,12.7 µM
same,TGI,NCI/ADR-RES ovarian,25.3 µM
same,GI50,UACC-62 melanoma,0.618 µM
same,TGI,UACC-62 melanoma,16 µM
same,GI50,IGROV1 ovarian,0.0154 µM
same,TGI,IGROV1 ovarian,0.0561 µM
same,GI50,MOLT-4 leukemia,1.57 µM
same,TGI,MOLT-4 leukemia,2.91 µM
same,GI50,SF-268 CNS,6.37 µM
same,TGI,SF-268 CNS,18.9 µM
same,GI50,HL-60(TB) leukemia,0.878 µM
same,TGI,HL-60(TB) leukemia,15.4 µM
same,GI50,HT29 colon,13.2 µM
same,TGI,HT29 colon,26 µM
same,GI50,SNB-19 CNS,11.3 µM
same,TGI,SNB-19 CNS,23.4 µM
same,GI50,SK-MEL-28 melanoma,13.4 µM
same,TGI,SK-MEL-28 melanoma,26.2 µM
same,GI50,OVCAR-5 ovarian,0.046 µM
same,TGI,OVCAR-5 ovarian,12 µM
same,GI50,SR leukemia,1.52 µM
same,TGI,SR leukemia,2.89 µM
same,GI50,CCRF-CEM leukemia,1.6 µM
same,TGI,CCRF-CEM leukemia,3.08 µM
same,GI50,NCI-H460 NSCLC,0.37 µM
same,TGI,NCI-H460 NSCLC,2.03 µM
same,GI50,K-562 leukemia,1.09 µM
same,TGI,K-562 leukemia,2.85 µM
same,TGI,MDA-MB-468 breast,0.0175 µM
same,GI50,ACHN renal,11.2 µM
same,TGI,ACHN renal,23.3 µM
same,GI50,BT-549 breast,5.47 µM
same,TGI,BT-549 breast,17.9 µM
same,GI50,M14 melanoma,2.86 µM
same,TGI,M14 melanoma,6.82 µM
same,GI50,HCT-116 colon,1.01 µM
same,TGI,HCT-116 colon,2.57 µM
same,GI50,SK-OV-3 ovarian,3.17 µM
same,TGI,SK-OV-3 ovarian,12 µM
same,GI50,KM12 colon,2.31 µM
same,TGI,KM12 colon,5.46 µM
same,GI50,SF-539 CNS,2.27 µM
same,TGI,SF-539 CNS,4.54 µM
same,GI50,SN12C renal,10.3 µM
same,TGI,SN12C renal,22 µM
same,GI50,HCC-2998 colon,11.7 µM
same,TGI,HCC-2998 colon,24 µM
same,GI50,U251 glioblastoma,1.26 µM
same,TGI,U251 glioblastoma,2.6 µM
same,GI50,A549 NSCLC,1.72 µM
same,TGI,A549 NSCLC,17.1 µM
same,GI50,RXF 393 renal,8.49 µM
same,TGI,RXF 393 renal,20.7 µM
same,GI50,NCI-H226 lung,0.0195 µM
same,TGI,NCI-H226 lung,0.128 µM
same,GI50,TK-10 renal,0.13 µM
same,TGI,TK-10 renal,12.6 µM
same,GI50,UO-31 renal,11.1 µM
same,TGI,UO-31 renal,23.1 µM
same,GI50,MALME-3M melanoma,4.61 µM
same,TGI,MALME-3M melanoma,12.1 µM
same,GI50,SK-MEL-5 melanoma,0.378 µM
same,TGI,SK-MEL-5 melanoma,12.4 µM
same,GI50,MCF7 breast,0.0266 µM
same,TGI,MCF7 breast,0.146 µM
same,GI50,OVCAR-8 ovarian,6.35 µM
same,TGI,OVCAR-8 ovarian,19.5 µM
same,GI50,OVCAR-4 ovarian,8.64 µM
same,TGI,OVCAR-4 ovarian,21 µM
same,GI50,HCT-15 colon,8.41 µM
same,TGI,HCT-15 colon,20.6 µM
same,GI50,COLO 205 colon,6.39 µM
same,TGI,COLO 205 colon,18 µM
same,GI50,786-0 renal,9.12 µM
same,TGI,786-0 renal,21.3 µM
same,GI50,MDA-MB-231 breast,5.54 µM
same,TGI,MDA-MB-231 breast,17.4 µM
same,GI50,DU-145 prostate,12.5 µM
same,TGI,DU-145 prostate,25 µM
same,GI50,A498 renal,0.0368 µM
same,TGI,A498 renal,0.182 µM
same,GI50,MDA-MB-435 melanoma,3.27 µM
same,TGI,MDA-MB-435 melanoma,8.1 µM
same,GI50,NCI-H322M lung,9.87 µM
same,TGI,NCI-H322M lung,21.5 µM
same,GI50,NCI-H522 lung,4.75 µM
same,TGI,NCI-H522 lung,18.6 µM
same,GI50,UACC-257 melanoma,0.285 µM
same,TGI,UACC-257 melanoma,0.884 µM
same,GI50,CAKI-1 renal,1.52 µM
same,TGI,CAKI-1 renal,19.5 µM
same,GI50,RPMI-8226 leukemia,0.804 µM
same,TGI,RPMI-8226 leukemia,3.31 µM
